The record followed here is the kinase profiling compilation of Christmann-Franck et al. (2016).

Holding throughout (experiment): Caliper, Mobility shift assay off-chip
One assay concerns LYN (mouse). Particulars: compound 1.0 µM; accession and sequence are those of the human protein.
The next assay has as its target PIK3CG (human) (UniProt P48736). Particulars: compound 1.0 µM.
Another assay has as its target PIK3CD (human) (UniProt O00329). Particulars: compound 1.0 µM.
The target in the next assay is CSNK1A1 (yeast) (UniProt P48729). Particulars: compound 1.0 µM; accession and sequence are those of the human protein.
For another assay, the target named is MAPK3 (human) (UniProt P27361). Particulars: compound 1.0 µM.
The test system of the next assay is ABL1 (mouse). Particulars: compound 1.0 µM; accession and sequence are those of the human protein.
A further assay has as its target MYLK (human) (UniProt Q15746). Particulars: compound 1.0 µM.
A further assay addresses CSNK1A1 (human) (UniProt P48729). Particulars: compound 1.0 µM.
The next assay has as its system ABL2 (mouse). Particulars: compound 1.0 µM; accession and sequence are those of the human protein.
The next assay deals with PIK3CB (human) (UniProt P42338). Particulars: compound 1.0 µM.
In assay [1] the test system is TEK (human), Q02763 [R849W].
For assay [2], the system named is ABL1 (human), P00519 [M351T].
A further assay deals with CLK2 (human) (UniProt P49760).
Assay [3] deals with RET (human), P07949 [V804M].
In the next assay the target is MTOR FKBP1A (human) (UniProt P42345+P62942).
A further assay concerns the target ULK2 (human) (UniProt Q8IYT8).
The test system of the next assay is CSNK1A1 (rat). Particulars: compound 10.0 µM; accession and sequence are those of the human protein.
A further assay deals with MAP3K8 (human) (UniProt P41279). Particulars: compound 10.0 µM.
Another assay has as its system PHKG1 (rabbit). Particulars: compound 10.0 µM; accession and sequence are those of the human protein.
A further assay addresses PBK (human) (UniProt Q96KB5). Particulars: compound 10.0 µM.
The target in the next assay is PRKAA1 (human) (UniProt Q13131). Particulars: compound 10.0 µM.
Another assay deals with MAP3K14 (human) (UniProt Q99558). Particulars: compound 10.0 µM.
Another assay deals with CSNK2A1 (human) (UniProt P68400). Particulars: compound 10.0 µM.
A further assay deals with PAK1 (human) (UniProt Q13153). Particulars: compound 10.0 µM.
Another assay deals with BRAF (human) (UniProt P15056). Particulars: compound 10.0 µM.
The next assay addresses AURKC (human) (UniProt Q9UQB9). Particulars: compound 10.0 µM.
In the next assay the target is CDK4 (human) (UniProt P11802). Particulars: compound 10.0 µM.
The test system of assay [4] is RPS6KB1 (human), P23443 [T412E]. Particulars: compound 10.0 µM.
The next assay concerns the target MARK4 (human) (UniProt Q96L34). Particulars: compound 10.0 µM.
For the next assay, the target named is NTRK3 (human) (UniProt Q16288). Particulars: compound 10.0 µM.
Another assay deals with MAP2K1 (rabbit). Particulars: compound 10.0 µM; accession and sequence are those of the human protein.
The next assay has as its target PRKDC (human) (UniProt P78527). Particulars: compound 10.0 µM.
Another assay deals with ERBB2 (human) (UniProt P04626). Particulars: compound 10.0 µM.
The test system of the next assay is DYRK1A (rat). Particulars: compound 10.0 µM; accession and sequence are those of the human protein.
The next assay concerns the target SGK1 (human) (UniProt O00141). Particulars: compound 10.0 µM.
The target of the next assay is CDC7 (human) (UniProt O00311). Particulars: compound 10.0 µM.
Another assay deals with MAP2K4 (mouse). Particulars: compound 10.0 µM; accession and sequence are those of the human protein.
A further assay concerns the target TEC (human) (UniProt P42680). Particulars: compound 10.0 µM.

MTOR FKBP1A (human), sequence (P62942 whole entry, looked up, other chains not shown): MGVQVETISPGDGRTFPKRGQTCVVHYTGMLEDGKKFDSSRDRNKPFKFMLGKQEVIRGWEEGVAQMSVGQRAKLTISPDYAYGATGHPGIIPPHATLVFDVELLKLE
CLK2 (human), sequence (P49760 whole entry, looked up): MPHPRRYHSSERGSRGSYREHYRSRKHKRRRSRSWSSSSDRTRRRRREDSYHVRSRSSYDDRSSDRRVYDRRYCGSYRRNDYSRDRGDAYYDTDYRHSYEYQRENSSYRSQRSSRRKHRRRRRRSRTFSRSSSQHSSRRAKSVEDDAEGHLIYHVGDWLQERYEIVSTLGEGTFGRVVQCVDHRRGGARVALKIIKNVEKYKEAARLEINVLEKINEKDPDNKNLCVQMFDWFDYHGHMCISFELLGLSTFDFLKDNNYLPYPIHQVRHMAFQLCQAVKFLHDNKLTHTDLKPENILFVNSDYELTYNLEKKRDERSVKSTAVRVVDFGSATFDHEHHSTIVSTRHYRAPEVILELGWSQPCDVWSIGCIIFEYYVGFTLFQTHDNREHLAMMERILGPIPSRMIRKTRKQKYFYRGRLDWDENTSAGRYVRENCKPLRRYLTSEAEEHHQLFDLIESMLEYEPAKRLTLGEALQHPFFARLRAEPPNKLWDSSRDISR
TEK (human), Q02763 [R849W], sequence (Q02763 whole entry R849W, looked up): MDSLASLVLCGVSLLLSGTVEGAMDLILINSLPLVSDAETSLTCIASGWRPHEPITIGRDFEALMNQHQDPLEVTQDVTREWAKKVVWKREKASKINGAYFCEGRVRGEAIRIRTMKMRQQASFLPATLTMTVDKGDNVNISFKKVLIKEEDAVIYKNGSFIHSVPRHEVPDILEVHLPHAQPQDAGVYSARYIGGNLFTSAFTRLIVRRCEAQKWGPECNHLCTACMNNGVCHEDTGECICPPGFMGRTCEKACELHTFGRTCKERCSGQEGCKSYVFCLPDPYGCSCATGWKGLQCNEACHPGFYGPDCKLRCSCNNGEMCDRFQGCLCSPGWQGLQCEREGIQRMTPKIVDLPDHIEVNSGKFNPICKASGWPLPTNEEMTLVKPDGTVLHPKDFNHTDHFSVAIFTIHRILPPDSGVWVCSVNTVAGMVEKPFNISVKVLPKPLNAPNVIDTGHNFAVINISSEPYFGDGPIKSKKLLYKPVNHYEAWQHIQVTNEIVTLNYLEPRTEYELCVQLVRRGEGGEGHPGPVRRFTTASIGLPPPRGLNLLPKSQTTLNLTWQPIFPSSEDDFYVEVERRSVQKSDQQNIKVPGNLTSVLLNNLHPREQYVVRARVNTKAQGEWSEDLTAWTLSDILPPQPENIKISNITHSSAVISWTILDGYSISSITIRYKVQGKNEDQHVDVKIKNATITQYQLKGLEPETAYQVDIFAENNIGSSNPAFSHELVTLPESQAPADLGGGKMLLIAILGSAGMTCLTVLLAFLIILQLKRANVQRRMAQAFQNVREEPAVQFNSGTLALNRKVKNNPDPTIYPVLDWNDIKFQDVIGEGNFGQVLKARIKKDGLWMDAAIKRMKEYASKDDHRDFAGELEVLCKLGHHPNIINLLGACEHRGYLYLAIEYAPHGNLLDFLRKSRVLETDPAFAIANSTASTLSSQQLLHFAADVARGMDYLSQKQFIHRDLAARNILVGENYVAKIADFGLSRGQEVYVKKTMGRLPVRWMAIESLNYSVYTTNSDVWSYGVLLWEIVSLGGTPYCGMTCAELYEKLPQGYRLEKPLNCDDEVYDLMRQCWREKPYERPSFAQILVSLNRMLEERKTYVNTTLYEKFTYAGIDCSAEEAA
ULK2 (human), sequence (Q8IYT8 whole entry, looked up): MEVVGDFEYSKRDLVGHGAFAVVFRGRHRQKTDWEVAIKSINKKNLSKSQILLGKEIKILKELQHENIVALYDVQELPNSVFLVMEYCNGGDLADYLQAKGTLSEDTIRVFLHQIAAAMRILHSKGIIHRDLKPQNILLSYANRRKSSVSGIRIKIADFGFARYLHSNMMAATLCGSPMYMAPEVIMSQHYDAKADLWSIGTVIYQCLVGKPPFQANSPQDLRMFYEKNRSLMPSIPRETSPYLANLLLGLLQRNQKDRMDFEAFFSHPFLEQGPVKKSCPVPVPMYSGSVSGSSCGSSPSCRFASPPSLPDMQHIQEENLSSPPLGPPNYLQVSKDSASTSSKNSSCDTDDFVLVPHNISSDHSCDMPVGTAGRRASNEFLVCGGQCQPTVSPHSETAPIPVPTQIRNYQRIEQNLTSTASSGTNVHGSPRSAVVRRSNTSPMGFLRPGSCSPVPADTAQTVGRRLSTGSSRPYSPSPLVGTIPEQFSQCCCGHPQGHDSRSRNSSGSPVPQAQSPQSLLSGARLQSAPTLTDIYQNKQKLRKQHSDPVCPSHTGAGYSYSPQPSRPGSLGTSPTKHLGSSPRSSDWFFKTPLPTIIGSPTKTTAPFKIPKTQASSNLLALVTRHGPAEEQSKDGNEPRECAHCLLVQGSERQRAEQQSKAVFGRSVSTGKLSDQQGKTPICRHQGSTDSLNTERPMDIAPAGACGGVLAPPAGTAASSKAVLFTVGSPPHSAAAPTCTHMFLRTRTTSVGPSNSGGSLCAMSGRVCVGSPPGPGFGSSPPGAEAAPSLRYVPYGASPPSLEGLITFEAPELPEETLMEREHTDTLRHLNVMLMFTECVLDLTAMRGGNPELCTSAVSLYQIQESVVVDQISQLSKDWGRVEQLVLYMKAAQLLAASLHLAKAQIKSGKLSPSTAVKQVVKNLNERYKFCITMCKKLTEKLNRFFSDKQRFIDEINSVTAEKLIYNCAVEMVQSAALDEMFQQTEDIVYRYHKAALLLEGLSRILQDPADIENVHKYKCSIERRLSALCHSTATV
RET (human), P07949 [V804M], sequence (P07949 whole entry V804M, looked up): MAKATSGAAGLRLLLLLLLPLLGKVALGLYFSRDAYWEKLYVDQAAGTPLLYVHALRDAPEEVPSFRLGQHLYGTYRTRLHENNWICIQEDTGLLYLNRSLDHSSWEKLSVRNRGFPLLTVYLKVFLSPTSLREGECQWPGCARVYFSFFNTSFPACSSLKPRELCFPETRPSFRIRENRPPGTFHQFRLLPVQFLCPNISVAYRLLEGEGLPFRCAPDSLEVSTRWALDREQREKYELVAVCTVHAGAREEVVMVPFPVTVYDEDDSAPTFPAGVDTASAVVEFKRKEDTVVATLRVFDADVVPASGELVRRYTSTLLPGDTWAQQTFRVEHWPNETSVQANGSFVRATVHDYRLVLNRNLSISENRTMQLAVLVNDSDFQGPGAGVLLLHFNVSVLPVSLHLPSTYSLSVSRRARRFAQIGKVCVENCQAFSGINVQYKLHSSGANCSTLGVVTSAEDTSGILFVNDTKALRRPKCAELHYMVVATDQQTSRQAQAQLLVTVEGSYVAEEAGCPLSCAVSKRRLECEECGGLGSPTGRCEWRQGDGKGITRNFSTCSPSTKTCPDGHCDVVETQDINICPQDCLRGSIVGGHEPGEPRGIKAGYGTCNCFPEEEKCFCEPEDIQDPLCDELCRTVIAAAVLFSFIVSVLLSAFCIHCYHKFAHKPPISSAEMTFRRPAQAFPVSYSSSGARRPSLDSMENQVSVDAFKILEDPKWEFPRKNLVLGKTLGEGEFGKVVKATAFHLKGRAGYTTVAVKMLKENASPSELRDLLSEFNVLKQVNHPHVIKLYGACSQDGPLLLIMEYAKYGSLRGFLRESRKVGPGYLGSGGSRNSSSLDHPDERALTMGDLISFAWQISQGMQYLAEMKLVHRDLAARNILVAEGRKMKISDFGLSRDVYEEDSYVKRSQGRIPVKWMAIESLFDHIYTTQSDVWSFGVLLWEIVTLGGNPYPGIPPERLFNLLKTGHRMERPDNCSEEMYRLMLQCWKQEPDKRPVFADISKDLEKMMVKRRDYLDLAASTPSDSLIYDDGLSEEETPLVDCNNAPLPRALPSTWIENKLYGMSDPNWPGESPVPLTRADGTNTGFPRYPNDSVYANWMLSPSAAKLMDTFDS
PIK3CD (human), sequence (O00329 whole entry, looked up): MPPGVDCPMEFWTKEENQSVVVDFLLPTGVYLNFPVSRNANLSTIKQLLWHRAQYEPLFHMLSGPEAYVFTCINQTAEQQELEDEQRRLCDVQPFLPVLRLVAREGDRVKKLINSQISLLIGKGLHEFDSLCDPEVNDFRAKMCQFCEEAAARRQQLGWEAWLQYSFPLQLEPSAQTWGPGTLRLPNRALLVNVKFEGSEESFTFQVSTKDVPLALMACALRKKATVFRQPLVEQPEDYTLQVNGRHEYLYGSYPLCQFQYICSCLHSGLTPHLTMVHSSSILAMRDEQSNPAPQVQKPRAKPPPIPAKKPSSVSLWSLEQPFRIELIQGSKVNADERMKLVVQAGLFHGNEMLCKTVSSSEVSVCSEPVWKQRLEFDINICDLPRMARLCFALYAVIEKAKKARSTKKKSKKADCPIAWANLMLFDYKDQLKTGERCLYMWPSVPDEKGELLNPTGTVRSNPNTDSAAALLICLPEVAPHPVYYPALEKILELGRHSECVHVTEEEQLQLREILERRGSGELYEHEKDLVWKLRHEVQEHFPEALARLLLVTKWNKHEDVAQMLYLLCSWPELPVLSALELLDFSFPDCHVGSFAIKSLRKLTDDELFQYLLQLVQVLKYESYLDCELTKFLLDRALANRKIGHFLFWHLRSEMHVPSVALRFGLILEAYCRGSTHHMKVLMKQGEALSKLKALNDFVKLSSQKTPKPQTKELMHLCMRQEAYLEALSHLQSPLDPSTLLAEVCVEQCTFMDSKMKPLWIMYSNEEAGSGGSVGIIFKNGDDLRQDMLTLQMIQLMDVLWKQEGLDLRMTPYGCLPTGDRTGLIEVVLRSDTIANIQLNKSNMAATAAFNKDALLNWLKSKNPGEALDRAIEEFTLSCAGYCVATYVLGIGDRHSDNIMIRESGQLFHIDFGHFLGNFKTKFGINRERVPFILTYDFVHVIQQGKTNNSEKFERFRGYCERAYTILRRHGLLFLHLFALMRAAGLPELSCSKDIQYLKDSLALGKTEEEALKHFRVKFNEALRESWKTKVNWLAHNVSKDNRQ

On to `Cc1n[nH]c2c1c(=O)n(CCCN)c1ccc(Cl)cc21`, for which the residual activity (as a rule, the signal under treatment as a percentage of the control signal) was determined as 69% in the assay with LYN (mouse); 116% at PIK3CG (human); 95% at PIK3CD (human); 69% on CSNK1A1 (yeast); 89% at MAPK3 (human); 98% with ABL1 (mouse). The residual activity on MYLK (human) worked out at 68%; at CSNK1A1 (human), 111%; in the assay with ABL2 (mouse) it was 110%; on PIK3CB (human), 100%.
With `C[C@@H](Nc1nc2c(C#CC3CC3)c[nH]c(=O)c2c2cc(-c3cn[nH]c3)ccc12)C(C)(C)C`, the residual activity in assay [1] (compound 1.0 µM) amounted to 74%; in [2] (compound 1.0 µM), 50%; on CLK2 (human) (compound 1.0 µM) it was 67%; in [3] (compound 1.0 µM), 13%; on MTOR FKBP1A (human) (compound 1.0 µM) it was 94%; at ULK2 (human) (compound 1.0 µM), 30%.
Turning to `CC(C)(C)c1nc2c3ccc(F)cc3c3c(=O)[nH]ccc3c2[nH]1`, the residual activity in the assay on CSNK1A1 (rat) worked out at 59%; at MAP3K8 (human) it was 87%; in the assay with PHKG1 (rabbit) it was 6%; at PBK (human), 10%; on PRKAA1 (human), 5%; on MAP3K14 (human) it was 92%. Further, the residual activity is 71% at CSNK2A1 (human); 73% at PAK1 (human); 114% on BRAF (human); 4% at AURKC (human); 21% at CDK4 (human); 11% in assay [4]. In addition, the residual activity at MARK4 (human) turned out to be 25%; at NTRK3 (human), 2%; in the assay with MAP2K1 (rabbit) it was 30%; at PRKDC (human), 97%; at ERBB2 (human), 130%; with DYRK1A (rat), 64%. Besides, the residual activity at SGK1 (human) turned out to be 3%; at CDC7 (human), 70%.
In the case of `O=C(N[C@@H](COc1ccc2[nH]c(=O)[nH]c2c1)c1ccccc1)c1cccn(Cc2ccc(F)c(F)c2)c1=O`, the residual activity in assay [1] (compound 10.0 µM) came out at 104%; in assay [2] (compound 10.0 µM), 110%; in the assay with MAP2K4 (mouse), 112%; at TEC (human) it was 91%; on CLK2 (human) (compound 10.0 µM) it was 100%; in assay [3] (compound 10.0 µM) it was 109%. The residual activity on MTOR FKBP1A (human) (compound 10.0 µM) is 103%; on ULK2 (human) (compound 10.0 µM), 110%.
